Reference: BindingDB's records for doi:10.1021/acs.jmedchem.5b00261 (Genentech, 2015)

Test: Inhibition of LRRK2 G2019S mutant-induced neuronal toxicity in human cortical neurons

Structure (SMILES): COc1cc(N2CCOCC2)ccc1Nc1ncc(F)c(Nc2ccccc2NS(C)(=O)=O)n1
- EC50: 4 nM
